Source: ChEMBL document CHEMBL1201862, “PubChem BioAssay data set” (2004)
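Method: 48-hour compound exposure of cells in 96-well plates, five concentrations, linear interpolation of endpoints. Abbreviation: GI50, concentration required for 50% inhibition of growth.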 Calls of active or inactive are those of the source. Rule as the data show it: active = GI50 up to about 1.1 µM and inactive = higher.

Columns and labels:
Assay in all cases: growth of human tumour cells (NCI), 48 h
[1] = tested on: T47D
[2] = tested on: LOX IMVI
[3] = tested on: SW-620
[4] = tested on: UO-31
[5] = tested on: SNB-19
[6] = tested on: MDA-MB-231
[7] = tested on: NCI-H460
[8] = tested on: UACC-257
[9] = tested on: Hs-578T
[10] = tested on: HOP-62
[11] = tested on: MDA-MB-435
[12] = tested on: ACHN
[13] = tested on: SF-539
[14] = tested on: OVCAR-3
[15] = tested on: EKVX
[16] = tested on: SNB-75
[17] = tested on: NCI-H23
[18] = tested on: HL-60
[19] = tested on: SK-MEL-28
[20] = tested on: RPMI-8226
[21] = tested on: SK-MEL-5
[22] = tested on: CAKI-1
[23] = tested on: HT-29
[24] = tested on: U-251
[25] = tested on: CCRF-CEM
[26] = tested on: M14
[27] = tested on: NCI-H522
[28] = tested on: HCT-116
[29] = tested on: RXF 393
[30] = tested on: Malme-3M
[31] = tested on: OVCAR-8
[32] = tested on: KM12
[33] = tested on: OVCAR-4
[34] = tested on: SK-OV-3
[35] = tested on: SF-268
[36] = tested on: K562
[37] = tested on: 786-0
[38] = tested on: MOLT-4
[39] = tested on: NCI/ADR-RES
[40] = tested on: SN12C
[41] = tested on: PC-3
[42] = tested on: DU-145
[43] = tested on: SK-MEL-2
[44] = tested on: MCF7
[45] = tested on: NCI-H226
[46] = tested on: COLO 205
[47] = tested on: SF-295
[48] = tested on: OVCAR-5
[49] = tested on: A549
[50] = tested on: TK-10
[51] = tested on: UACC-62
[52] = tested on: IGROV-1
[53] = tested on: BT-549
[54] = tested on: A498
[55] = tested on: HCC 2998
[56] = tested on: HCT-15
[57] = tested on: MDA-N

O=C1/C(=C/c2ccc(O)c([N+](=O)[O-])c2)CCC/C1=C\c1ccc(O)c([N+](=O)[O-])c1
GI50 [1]: 14.9 µM (inactive) | GI50 [2]: 9.89 µM (inactive) | GI50 [3]: 10.2 µM (inactive) | GI50 [4]: 15.2 µM (inactive) | GI50 [5]: 11.7 µM (inactive) | GI50 [6]: 21.9 µM (inactive) | GI50 [7]: 17.8 µM (inactive) | GI50 [8]: 10.5 µM (inactive) | GI50 [9]: 4.48 µM (inactive) | GI50 [10]: 12.5 µM (inactive) | GI50 [11]: 9.53 µM (inactive) | GI50 [12]: 7.96 µM (inactive) | GI50 [13]: 19.3 µM (inactive) | GI50 [14]: 8.36 µM (inactive) | GI50 [15]: 22.6 µM (inactive) | GI50 [16]: 1.61 µM (inactive) | GI50 [17]: 12.3 µM (inactive) | GI50 [18]: 14.6 µM (inactive) | GI50 [19]: 7.5 µM (inactive) | GI50 [20]: 13.1 µM (inactive) | GI50 [21]: 9.27 µM (inactive) | GI50 [22]: 11.5 µM (inactive) | GI50 [23]: 12.3 µM (inactive) | GI50 [24]: 9.33 µM (inactive) | GI50 [25]: 30 µM (inactive) | GI50 [26]: 10.8 µM (inactive) | GI50 [27]: 8.93 µM (inactive) | GI50 [28]: 8.45 µM (inactive) | GI50 [29]: 10 µM (inactive) | GI50 [30]: 8.63 µM (inactive) | GI50 [31]: 18.5 µM (inactive) | GI50 [32]: 9.4 µM (inactive) | GI50 [33]: 18.9 µM (inactive) | GI50 [34]: 26 µM (inactive) | GI50 [35]: 4.28 µM (inactive) | GI50 [36]: 15.7 µM (inactive) | GI50 [37]: 11.5 µM (inactive) | GI50 [38]: 13.9 µM (inactive) | GI50 [39]: 19.2 µM (inactive) | GI50 [40]: 11.4 µM (inactive) | GI50 [41]: 13.3 µM (inactive) | GI50 [42]: 9.77 µM (inactive) | GI50 [43]: 11.4 µM (inactive) | GI50 [44]: 12.3 µM (inactive) | GI50 [45]: 11.6 µM (inactive) | GI50 [46]: 13.5 µM (inactive) | GI50 [47]: 18.4 µM (inactive) | GI50 [48]: 15.4 µM (inactive) | GI50 [49]: 11.7 µM (inactive) | GI50 [50]: 23.2 µM (inactive) | GI50 [51]: 7.23 µM (inactive) | GI50 [52]: 8.93 µM (inactive) | GI50 [53]: 13.3 µM (inactive) | GI50 [54]: 6.55 µM (inactive) | GI50 [55]: 8.69 µM (inactive) | GI50 [56]: 12.4 µM | GI50 [57]: 7.57 µM (inactive)
